Experimental findings from patent US10588934B2, “Opioid peptide” (priority 2014, dated 2020) are described below.

The test system of data set [1] is Swiss mice. It counts as in vivo, Mus musculus. As for the experimental part: (§1) In vivo analyzes: Tests were carried out on Swiss mice of the Mus musculus species, in which nociception tests (hot plate and tail removal test) were used according to Le Bars et al. (2001). Injections were administered via intraperitoneal (IP). Doses were based upon dose and molaridade of the morphine (10 mg/kg animal).
(§2) FIGS. 1,2,3 and 4 represent the raw data obtained from the experiments after statistical analysis. The symbols (*, **, #) indicate the beginning of the statistically significant activity (S) or the statistically non-significant differences (NS). Analyzes of opioid activity were performed in two classical models of studies for this activity: Tail Flick or Hot Plate test.

Data set [2] relates to Swiss mice. Put plainly: Tail flick (tail removal) nociception test. It counts as in vivo, Mus musculus. As to conditions: for activity profile of the group given substance+naloxone compared with saline: with serial naloxone 4 mg/kg. As for the experimental part:
as §1, §2

The next data set relates to trypsin. The following applies: 37° C., 15 minutes to 4 hours, MALDI.

Read-outs that look alike come from different tables or passages of the source. Ends that are not written are not given here.

Experimental for trypsin: Representation of the fragments obtained at the different incubation times with the enzyme trypsin. Analysis performed by mass spectrometry, MALDI. The first spectrum, marked with the letter A, refers to the time of 15 minutes; The second spectrum marked with the letter B indicates the time of 30 minutes; C indicates the time of 1 hour; D indicates the time of 2 hours; E indicates the time of 4 hours and, finally, F is the control peptide (SEQ ID NO: 2).

Turning to `C=CCN1CC[C@]23c4c5ccc(O)c4O[C@H]2C(=O)CC[C@@]3(O)[C@H]1C5` [naloxone, reference compound], the “activity profile of naloxone alone compared with saline” value in the data set with Swiss mice [1] (hot plate, naloxone 4 mg/kg) is given as “no significant differences in activity profile”; with Swiss mice [2] (tail-flick, naloxone 4 mg/kg), “no significant differences in activity profile”.

For “YGGFL [Leu-enkephalin, reference compound]”, in the data set on Swiss mice [1] (mouse, in vivo), the “activity after administration of naloxone was discontinued” value is on record as “activity has also been resumed” and the “activity profile of the group given substance+naloxone compared with saline” value was “no significant differences in activity profile”. Moreover, the “activity profile of the group given substance+naloxone compared with saline” value with Swiss mice [2] (tail-flick) is “no significant differences in activity profile”.

Take “SEQ ID NO: 1: opioid peptide of formula TyrProPhe-X1-TrpGlyGly-X2-ProPro (X1 Gly or Lys; X2 Ile or Val); exact sequence not printed in the text (YPFGWGGIPP)”: the “time from which there were no statistically significant differences from morphine” value in the data set on Swiss mice [1] (hot plate, IP, morphine 10 mg/kg, P>0.05) is 60 min. In the data set on Swiss mice [1] (hot plate, IP, test of 240 min), the “persistence of the significant difference in relation to saline” value is on record as “at the time of 120 minutes, there was no significant difference” and the “time at which statistically significant antinociceptive activity started, in relation to saline” value was 60 min. Further, the “difference between peptide alone and peptide+naloxone (naloxone reversal)” value with Swiss mice [1] (hot plate, serial naloxone 4 mg/kg, later discontinued) is “no significant differences only at 210 minutes and 240 minutes”. The “activity after administration of naloxone was discontinued” value with Swiss mice [1] (hot plate, substance+naloxone group) is on record as “returned to action”. Further, in the data set on Swiss mice [1] (mouse, in vivo), the “cumulative effect over time (area below the curve)” value is “higher cumulative effect similar to morphine and Leu-encefaiina”; the “difference from Leu-enkephalin” value is “no statistically significant differences”. Moreover, the “cumulative effect over time (area under the curve)” value in the data set with Swiss mice [2] (tail flick, compared with morphine and Leu-enkephalin) was “greater than morphine and similar to Leu-enkephalin”. The “time from which there was no significant difference from Leu-enkephalin (peptide positive control)” value in the data set on Swiss mice [2] (tail-flick, IP, Leu-enkephalin 19.3 mg/kg, P>0.05) is “no significant difference throughout the assay”. In addition, the “time at which statistically significant antinociceptive action started, in relation to saline” value with Swiss mice [2] (tail-flick, IP, dose equimolar to morphine 10 mg/kg, test of 240 min) is listed as 90 min. Besides, the “time from which there was no significant difference from morphine (positive control)” value in the data set on Swiss mice [2] (tail-flick, IP, morphine 10 mg/kg) is 90 min. For the same molecule, in the data set on Swiss mice [2] (tail-flick, IP, test of 240 min), the “time up to which the significant antinociceptive action lasted, in relation to saline” value turned out to be 240 min. Further, the “difference between peptide alone and peptide+naloxone (naloxone reversal)” value with Swiss mice [2] (tail-flick, serial hourly naloxone 4 mg/kg, P<0.001) is “Except for the time of 30 min, there were significant differences”. In addition, the “activity profile of the group given substance+naloxone compared with saline” value in the data set on Swiss mice [2] (tail-flick) is on record as “no significant differences in activity profile”.

Take YPFKWGGVPP [SEQ ID NO: 2]: the “intensity of the major (precursor ion) peak during incubation with the enzyme” value in the data set on trypsin was “will reduce its intensity”.
